# Assay results reported in ChEMBL document CHEMBL3885881, “DrugMatrix”.
# Species: Rattus norvegicus
# Assay: DrugMatrix - Regimen: Daily Repeat
# Assay type: toxicity, organism-based, Sprague-Dawley
# Parameters: regimen Daily Repeat, gender Male, age 6-8 weeks
# Conditions: in vivo, po, 0 mg/kg, route oral GAVAGE, dose level Control, vehicle 100 % WATER; for ABSOLUTE BASOPHIL / ABSOLUTE EOSINOPHIL / ABSOLUTE LYMPHOCYTE / ABSOLUTE MONOCYTE / ABSOLUTE SEGMENTED NEUTROPHIL / BASOPHIL / EOSINOPHIL / ERYTHROCYTE COUNT / HEMATOCRIT / HEMOGLOBIN / LEUKOCYTE COUNT / LYMPHOCYTE / MEAN CORPUSCULAR HEMOGLOBIN / MEAN CORPUSCULAR HEMOGLOBIN CONCENTRATION / MEAN CORPUSCULAR VOLUME / MONOCYTE / NEUTROPHIL / NUCLEATED RED BLOOD CELLS / PLATELET COUNT: tissue Blood; for ALANINE AMINOTRANSFERASE / ALBUMIN / ALKALINE PHOSPHATASE / ASPARTATE AMINOTRANSFERASE / BLOOD UREA NITROGEN / CARBON DIOXIDE / CHLORIDE / CHOLESTEROL / CREATINE PHOSPHOKINASE / CREATININE / GLUCOSE / LACTATE DEHYDROGENASE / LIPASE / PHOSPHORUS / POTASSIUM / SODIUM / TOTAL BILIRUBIN / TOTAL PROTEIN / URIC ACID: tissue Plasma
compound,measurement,setting,value
C1CCN2C[C@@H]3C[C@@H](CN4CCCC[C@@H]34)[C@H]2C1 [SPARTEINE],ABSOLUTE BASOPHIL,"72 h, time 3 day",0 CELLS/uL
same,ABSOLUTE EOSINOPHIL,"72 h, time 3 day",86.33 CELLS/uL
same,ABSOLUTE LYMPHOCYTE,"72 h, time 3 day",12090.17 CELLS/uL
same,ABSOLUTE MONOCYTE,"72 h, time 3 day",166.67 CELLS/uL
same,ABSOLUTE SEGMENTED NEUTROPHIL,"72 h, time 3 day",1090.17 CELLS/uL
same,BASOPHIL,"72 h, time 3 day",0%
same,EOSINOPHIL,"72 h, time 3 day",0.67%
same,ERYTHROCYTE COUNT,"72 h, time 3 day",5.57 x10E6/uL
same,HEMATOCRIT,"72 h, time 3 day",35.33%
same,HEMOGLOBIN,"72 h, time 3 day",13.83 G/DL
same,LEUKOCYTE COUNT,"72 h, time 3 day",13.43 x10E3/uL
same,LYMPHOCYTE,"72 h, time 3 day",89.83%
same,MEAN CORPUSCULAR HEMOGLOBIN,"72 h, time 3 day",24.88 pg
same,MEAN CORPUSCULAR HEMOGLOBIN CONCENTRATION,"72 h, time 3 day",39.15 G/DL
same,MEAN CORPUSCULAR VOLUME,"72 h, time 3 day",63.52 fL
same,MONOCYTE,"72 h, time 3 day",1.17%
same,NEUTROPHIL,"72 h, time 3 day",8.33%
same,NUCLEATED RED BLOOD CELLS,"72 h, time 3 day",0 /100WBC
same,PLATELET COUNT,"72 h, time 3 day",1181.33 x10E3/uL
same,ALANINE AMINOTRANSFERASE,"72 h, time 3 day",48.33 u/L
same,ALBUMIN,"72 h, time 3 day",4.1 G/DL
same,ALKALINE PHOSPHATASE,"72 h, time 3 day",395 u/L
same,ASPARTATE AMINOTRANSFERASE,"72 h, time 3 day",81.83 u/L
same,BLOOD UREA NITROGEN,"72 h, time 3 day",15.83 mg/dL
same,CARBON DIOXIDE,"72 h, time 3 day",24.17 mmol/L
same,CHLORIDE,"72 h, time 3 day",103.83 MEQ/L
same,CHOLESTEROL,"72 h, time 3 day",63.67 mg/dL
same,CREATINE PHOSPHOKINASE,"72 h, time 3 day",372.83 u/L
same,CREATININE,"72 h, time 3 day",0.18 mg/dL
same,GLUCOSE,"72 h, time 3 day",173.83 mg/dL
same,LACTATE DEHYDROGENASE,"72 h, time 3 day",188.33 u/L
same,LIPASE,"72 h, time 3 day",9.5 u/L
same,PHOSPHORUS,"72 h, time 3 day",11.95 mg/dL
same,POTASSIUM,"72 h, time 3 day",5.99 MEQ/L
same,SODIUM,"72 h, time 3 day",144.43 MEQ/L
same,TOTAL BILIRUBIN,"72 h, time 3 day",0.15 mg/dL
same,TOTAL PROTEIN,"72 h, time 3 day",5.95 G/DL
same,URIC ACID,"72 h, time 3 day",1.82 mg/dL
same,ABSOLUTE BASOPHIL,"120 h, time 5 day",0 CELLS/uL
same,ABSOLUTE EOSINOPHIL,"120 h, time 5 day",26.67 CELLS/uL
same,ABSOLUTE LYMPHOCYTE,"120 h, time 5 day",7583.83 CELLS/uL
same,ABSOLUTE MONOCYTE,"120 h, time 5 day",131.33 CELLS/uL
same,ABSOLUTE SEGMENTED NEUTROPHIL,"120 h, time 5 day",674.83 CELLS/uL
same,BASOPHIL,"120 h, time 5 day",0%
same,EOSINOPHIL,"120 h, time 5 day",0.33%
same,ERYTHROCYTE COUNT,"120 h, time 5 day",5.78 x10E6/uL
same,HEMATOCRIT,"120 h, time 5 day",36.48%
same,HEMOGLOBIN,"120 h, time 5 day",14.03 G/DL
same,LEUKOCYTE COUNT,"120 h, time 5 day",8.42 x10E3/uL
same,LYMPHOCYTE,"120 h, time 5 day",89.83%
same,MEAN CORPUSCULAR HEMOGLOBIN,"120 h, time 5 day",24.3 pg
same,MEAN CORPUSCULAR HEMOGLOBIN CONCENTRATION,"120 h, time 5 day",38.52 G/DL
same,MEAN CORPUSCULAR VOLUME,"120 h, time 5 day",63.15 fL
same,MONOCYTE,"120 h, time 5 day",1.67%
same,NEUTROPHIL,"120 h, time 5 day",8.17%
same,NUCLEATED RED BLOOD CELLS,"120 h, time 5 day",0 /100WBC
same,PLATELET COUNT,"120 h, time 5 day",1186.67 x10E3/uL
same,ALANINE AMINOTRANSFERASE,"120 h, time 5 day",50.17 u/L
same,ALBUMIN,"120 h, time 5 day",4.07 G/DL
same,ALKALINE PHOSPHATASE,"120 h, time 5 day",367.5 u/L
same,ASPARTATE AMINOTRANSFERASE,"120 h, time 5 day",81.67 u/L
same,BLOOD UREA NITROGEN,"120 h, time 5 day",16.17 mg/dL
same,CARBON DIOXIDE,"120 h, time 5 day",32.33 mmol/L
same,CHLORIDE,"120 h, time 5 day",101.5 MEQ/L
same,CHOLESTEROL,"120 h, time 5 day",65.33 mg/dL
same,CREATINE PHOSPHOKINASE,"120 h, time 5 day",255.33 u/L
same,CREATININE,"120 h, time 5 day",0.17 mg/dL
same,GLUCOSE,"120 h, time 5 day",139.33 mg/dL
same,LACTATE DEHYDROGENASE,"120 h, time 5 day",95 u/L
same,LIPASE,"120 h, time 5 day",10.5 u/L
same,PHOSPHORUS,"120 h, time 5 day",10.38 mg/dL
same,POTASSIUM,"120 h, time 5 day",6.11 MEQ/L
same,SODIUM,"120 h, time 5 day",145.55 MEQ/L
same,TOTAL BILIRUBIN,"120 h, time 5 day",0.17 mg/dL
same,TOTAL PROTEIN,"120 h, time 5 day",5.98 G/DL
same,URIC ACID,"120 h, time 5 day",0.93 mg/dL
